Read-outs that look alike come from different tables or passages of the source.
Key:
[1] = test system: small cell lung cancer H526; experiment: in vitro cytotoxicity, PrestoBlue assay; type: cell-based, human
H1417 = experiment: in vitro cytotoxicity to SCLC cells; type: cell-based, human; conditions: Table 3
Experimental: (§1) After a 72-hr incubation in various concentrations of the newly synthesized compounds, the cytotoxic effects of them to all cell lines were determined by the PrestoBlue®(Invitrogen) assay using a microplate spectrophotometer. Briefly, at the end of treatment, an aliquot of PrestoBlue® solution was added and then cells were incubated at 37° C. for 1-2 hr. The absorbance at 570 and 600 nm was measured with a microplate reader. […] The ICso is defined by the concentration required to inhibit tumor cell growth by 50%. Data represent the mean±STDEV of three to six independent experiments for each compound.

H146 = experiment: in vitro cytotoxicity to SCLC cells; type: cell-based, human; conditions: Table 3
Experimental: as §1

H211 = experiment: in vitro cytotoxicity to SCLC cells; type: cell-based, human; conditions: Table 3
Experimental: as §1

H82 = experiment: in vitro cytotoxicity to SCLC cells; type: cell-based, human; conditions: Table 3
Experimental: as §1

[2] = test system: human SCLC H526 xenografts; experiment: tumor growth in xenograft-bearing nude mice; type: in vivo; conditions: micelle formulation (Kolliphor/TWEEN 80/PEG400/ethanol/D5W); BO-2768 at 20 mg/kg twice daily; FIG. 12, panel A
Experimental: Athymic nude mice bearing the nu/nu gene were obtained from the National Laboratory Animal Center (Taipei, Taiwan). Male nude mice (6 weeks or older weighing 20-24 g or more) were used for all human tumor xenografts. The tested compounds were intravenously administered through tail vein. Tumor volume was determined by measuring the length x width x height (or width) with calipers. […] For tumor-bearing nude mice during the course of the experiment, the % body weight changes refer to: (the total weight on reading day/the total weight on day treatment started)×100.
In all experiments, the tumor cells were subcutaneously implanted in nude mice, and the BO-2590L was administered via tail vein when the tumor size reaching approximate 100 mm^3. […]
To confirm the therapeutic activity of BO-2590L, comparative experiments carried out by known chemotherapeutic agents, such as vatanalib and cisplatin, were also performed. Briefly, the H526 xenograft-bearing mice were divided into 4 groups which were treated with vehicle, BO-2590L (10 mg/kg, QD×9), vatalanib (100 mg/kg, QD×9), and cisplatin (4 mg/kg, Q2D×3), respectively. Results are illustrated in FIG. 11.
Results are illustrated in FIGS. 12 and 13.

[3] = body weight changes of xenograft-bearing nude mice; type: in vivo; conditions: H526 xenograft mice, micelle formulation; FIG. 12, panel B
Experimental: Athymic nude mice bearing the nu/nu gene were obtained from the National Laboratory Animal Center (Taipei, Taiwan). Male nude mice (6 weeks or older weighing 20-24 g or more) were used for all human tumor xenografts. The tested compounds were intravenously administered through tail vein. Tumor volume was determined by measuring the length x width x height (or width) with calipers. The vehicle used for the tested compounds was normal saline (0.9% NaCl isotonic solution). For tumor-bearing nude mice during the course of the experiment, the % body weight changes refer to: (the total weight on reading day/the total weight on day treatment started)×100.

[4] = test system: human lymphoblastic leukemia cell line (CCRF-CEM); experiment: in vitro cytotoxicity, PrestoBlue assay; type: cell-based; conditions: read-out: IC50 CCRF-CEM
Experimental: (§2) All representative compounds of Formulae (I-A) and (I-B) were first evaluated for their in vitro cytotoxicity to human lymphoblastic leukemia cell line (CCRF-CEM) and its vinblastine-resistant sub-cell line (CCRF-CEM/VBL) (see Table 1).
as §1

colon cancer HCT-116 = experiment: in vitro cytotoxicity, PrestoBlue assay; type: cell-based, human; conditions: Table 2
Experimental: as §2, §1

[5] = test system: non-small cell lung cancer H460; experiment: in vitro cytotoxicity, PrestoBlue assay; type: cell-based, human; conditions: Table 2
Experimental: as §2, §1

pancreatic cancer PacaS1 = experiment: in vitro cytotoxicity, PrestoBlue assay; type: cell-based, human; conditions: Table 2
Experimental: as §2, §1

[6] = test system: vinblastine-resistant sub-cell line (CCRF-CEM/VBL); experiment: in vitro cytotoxicity, PrestoBlue assay; type: cell-based, human; conditions: for IC50: read-out: IC50 CEM/VBL; for resistance factor (IC50 CEM/VBL vs IC50 of the parent cell line): number in brackets
Experimental: as §2, §1

pEGFP-N1 plasmid DNA = experiment: DNA cross-linking, alkaline agarose gel electrophoresis; type: biochemical; conditions: 1-20 μM, 37° C., 2 hrs; FIG. 1
Experimental: In the present example, BO-2590, BO-2577 (Formula I-A) and BO-2698, BO-2755, BO-2762 and BO-2768 (Formula I-B) were tested for their DNA crosslinking activity, in which the cross-linking was analyzed by alkaline agarose gel electrophoresis. In brief, purified pEGFP-N1 plasmid DNA (1,500 ng) was mixed with various concentrations (1-20 μM) of the tested compounds in 40 μL binding buffer (3 mM sodium chloride/1 mM sodium phosphate, pH 7.4, and 1 mM EDTA). The reaction mixture was incubated at 37° C. for 2 hrs. At the end of reaction, the plasmid DNA was linearized by digestion with BamHI and followed by precipitation with ethanol. The DNA pellets were dissolved and denatured in alkaline buffer (0.5 N NaOH-10mM EDTA). An aliquot of 20 μL of DNA solution (1,000 ng) was mixed with 4 μL of 6× alkaline loading dye and then electrophoretically resolved on a 0.8% alkaline agarose gel with NaOH-EDTA buffer at 4° C. The electrophoresis was carried out at 18V for 22 h. After staining the gels with an ethidium bromide solution, the DNA was visualized under UV light. Results are illustrated in FIG. 1.

[7] = 72-hr incubation, mean ± STDEV of three to six experiments

## CCc1c2c(nc3ccc(OC(=O)N4CCC(N5CCCCC5)CC4)cc13)-c1cc3c(c(=O)n1C2)COC(=O)[C@]3(O)CC [Irinotecan, reference compound]
[1]; Homo sapiens, NCI-H526, Table 3, read-out: IC50 H526
  IC50: 590 ± 300 nM
H1417; Homo sapiens, NCI-H1417
  IC50: 9790 ± 840 nM
H146; Homo sapiens, NCI-H146
  IC50: 11500 ± 6530 nM
H211; Homo sapiens, NCI-H211
  IC50: 8810 ± 460 nM
H82; Homo sapiens, NCI-H82
  IC50: 2260 ± 10 nM
[2]
  tumor size: slowly increased in size
[3]
  deleterious effects on the bodyweight of the test animals: none

## Cc1c(CO)c(CO)c2c3ccccc3c(N3CCCC3)nn12 [BO-2686, (3-Methyl-6-(pyrrolidin-1-yl)pyrrolo[2,1-a]phthalazine-1,2 diyl)dimethanol]
[4]; Homo sapiens, CCRF-CEM, 72 h
  IC50: 920 ± 70 nM
Colon cancer HCT-116; Homo sapiens, HCT-116
  IC50: 3960 ± 60 nM
[5]; Homo sapiens, NCI-H460
  IC50: 3870 ± 730 nM
Pancreatic cancer PacaS1
  IC50 Paca SI: 11730 ± 1160 nM
[6]; Homo sapiens, CCRF-CEM, 72 h
  IC50: 470 ± 50 nM
[6]
  resistance factor (IC50 CEM/VBL vs IC50 of the parent cell line): 0.51 ×
[1]; Homo sapiens, NCI-H526, read-out: IC50 H526
  IC50: 300 ± 40 nM
other
  melting point: 160 to 162 °C

## Cc1c(CO)c(CO)c2c3cc4ccccc4cc3c(N3CCOCC3)nn12 [BO-2698]
[4]; [7]
  IC50: 380 ± 50 nM
Colon cancer HCT-116
  IC50: 1130 ± 20 nM
[5]
  IC50: 1180 ± 100 nM
Pancreatic cancer PacaS1
  IC50 Paca SI: 880 ± 260 nM
[6]; [7]
  IC50: 330 ± 30 nM
[6]
  resistance factor (IC50 CEM/VBL vs IC50 of the parent cell line): 0.86 ×
[1]; Table 2, read-out: IC50 H526
  IC50: 40 ± 10 nM
[1]; Table 3, read-out: IC50 H526
  IC50: 90 ± 60 nM
H1417
  IC50: 370 ± 10 nM
H146
  IC50: 1020 ± 160 nM
H211
  IC50: 220 ± 70 nM
H82
  IC50: 400 ± 160 nM
pEGFP-N1 plasmid DNA
  formation of DNA interstrand crosslinks: induced DNA interstrand crosslinks

## CCNC(=O)OCc1c(COC(=O)NCC)c2c3ccccc3c(N3CCCC3)nn2c1C [BO-2716, (3-Methyl-6-(pyrrolidin-1-yl)pyrrolo[2,1-a]phthalazine-1,2-diyl)-bis(methylene) bis(ethylcarbamate)]
[4]; Homo sapiens, CCRF-CEM, 72 h
  IC50: 1420 ± 90 nM
[6]; Homo sapiens, CCRF-CEM, 72 h
  IC50: 2100 ± 90 nM
[6]
  resistance factor (IC50 CEM/VBL vs IC50 of the parent cell line): 1.47 ×
other
  melting point: 140 to 142 °C

## Cc1c(CO)c(CO)c2c3cc4ccccc4cc3c(N3CCCC3)nn12 [BO-2762, (3-Methyl-6-(pyrrolidin-1-yl)benzo[g]pyrrolo[2,1-α]phthalazine-1,2-diyl)dimethanol]
[4]; [7]
  IC50: 190 ± 10 nM
Colon cancer HCT-116
  IC50: 930 ± 120 nM
[5]
  IC50: 780 ± 240 nM
Pancreatic cancer PacaS1
  IC50 Paca SI: 1040 ± 80 nM
[6]; [7]
  IC50: 140 ± 20 nM
[6]
  resistance factor (IC50 CEM/VBL vs IC50 of the parent cell line): 0.74 ×
[1]; Table 2, read-out: IC50 H526
  IC50: 50 ± 10 nM
[1]; Table 3, read-out: IC50 H526
  IC50: 30 ± 10 nM
H1417
  IC50: 600 ± 340 nM
H146
  IC50: 1010 ± 240 nM
H211
  IC50: 200 ± 120 nM
H82
  IC50: 410 ± 150 nM
pEGFP-N1 plasmid DNA
  formation of DNA interstrand crosslinks: induced DNA interstrand crosslinks

## Cc1c(CO)c(CO)c2c3cc4ccccc4cc3c(N3CCC(N4CCCCC4)CC3)nn12 [BO-2792]
[4]; [7]
  IC50: 17 ± 9 nM
[6]; [7]
  IC50: 25 ± 5 nM
[6]
  resistance factor (IC50 CEM/VBL vs IC50 of the parent cell line): 1.51 ×
[1]; Table 3, read-out: IC50 H526
  IC50: 3 ± 3 nM
H1417
  IC50: 250 ± 50 nM
H146
  IC50: 200 ± 150 nM
H211
  IC50: 20 ± 20 nM
H82
  IC50: 40 ± 10 nM
[2]
  tumor size: as effective as irinotecan and cisplatin in reducing the tumor size
[3]
  deleterious effects on the bodyweight of the test animals: none

## Cc1c(CO)c(CO)c2c3ccccc3c(N3CCOCC3)nn12 [BO-2571, (3-Methyl-6-morpholinopyrrolo[2,1-α]phthalazine-1,2-diyl)dimethanol]
[4]; [7]
  IC50: 760 ± 30 nM
Colon cancer HCT-116
  IC50: 1670 ± 180 nM
[5]
  IC50: 2640 ± 520 nM
Pancreatic cancer PacaS1
  IC50 Paca SI: 2160 ± 90 nM
[6]; [7]
  IC50: 560 ± 60 nM
[6]
  resistance factor (IC50 CEM/VBL vs IC50 of the parent cell line): 0.74 ×
[1]; Table 2, read-out: IC50 H526
  IC50: 100 ± 10 nM

## CCNC(=O)OCc1c(COC(=O)NCC)c2c3ccccc3c(N3CCOCC3)nn2c1C [BO-2573, (3-Methyl-6-morpholinopyrrolo[2,1-a]phthalazine-1,2-diyl)bis(methylene)bis(ethylcarbamate)]
[4]; [7]
  IC50: 690 ± 220 nM
Colon cancer HCT-116
  IC50: 1700 ± 210 nM
[5]
  IC50: 2480 ± 730 nM
Pancreatic cancer PacaS1
  IC50 Paca SI: 17230 ± 3480 nM
[6]; [7]
  IC50: 450 ± 30 nM
[6]
  resistance factor (IC50 CEM/VBL vs IC50 of the parent cell line): 0.65 ×
[1]; Table 2, read-out: IC50 H526
  IC50: 210 ± 30 nM

## Cc1c(CO)c(CO)c2c3cc4ccccc4cc3c(N3CCCCC3)nn12 [BO-2755]
[4]; [7]
  IC50: 800 ± 90 nM
Colon cancer HCT-116
  IC50: 4130 ± 270 nM
[5]
  IC50: 3030 ± 480 nM
Pancreatic cancer PacaS1
  IC50 Paca SI: 10010 ± 1640 nM
[6]; [7]
  IC50: 1010 ± 110 nM
[6]
  resistance factor (IC50 CEM/VBL vs IC50 of the parent cell line): 1.26 ×
[1]; Table 2, read-out: IC50 H526
  IC50: 120 ± 40 nM
[1]; Table 3, read-out: IC50 H526
  IC50: 220 ± 60 nM
H1417
  IC50: 1370 ± 30 nM
H146
  IC50: 2650 ± 1390 nM
H211
  IC50: 800 ± 330 nM
H82
  IC50: 1480 ± 660 nM
pEGFP-N1 plasmid DNA
  formation of DNA interstrand crosslinks: induced DNA interstrand crosslinks

Reference: patent publication US11066412B2, “Substituted pyrrolo[2,1-a]phthalazines and benzo[g]pyrrolo[2,1-a]phthalazines for the treatment of cancer” (Academia Sinica, priority 2017, dated 2021)
